In patent US20110189675A1, “Method For Administering Anticoagulation Therapy” (Marshfield Clinic, priority 2007, published 2011):

Columns and labels:
[1] = Stable therapeutic warfarin dose by CYP2C9, VKORC1 and rs2108622 (CYP4F2) genotype, 424 subjects; assay type: in vivo, human
Description: The initial cohort was recruited at Marshfield Clinic, a multi-specialty group practice in Wisconsin as described.^6, 16 Patients were excluded from the study if they were known to have cancer, renal or hepatic insufficiency, or congestive heart failure.
The targeted human DMET 1.0 assay (Affymetrix, Inc, Santa Clara, Calif.) utilizes molecular inversion probes and GeneChip universal tag arrays to target 1228 single nucleotide polymorphisms (SNP) within 170 genes for metabolic enzymes and transport and regulatory proteins (Table 2).
The laboratory protocol followed the standard process described in the Targeted Genotyping System User Guide^25 except for a preliminary polymerase chain reaction (PCR)-amplification step aimed at resolving genotypes from 29 SNPs in regions containing pseudogenes and close homologues. GeneChip Targeted Genotyping Analysis software was used to make genotype calls and generate QC metrics including call rates, average signal, cluster quality, Hardy-Weinberg equilibrium, and reproducibility. […] Genotypes represented by the remaining 1217 SNP assays were called according to either predefined boundaries (derived from historical training sets) or dynamic clustering using the current data set. […] The remaining polymorphisms target rare mutations or SNPs prevalent in other racial groups.
VKORC1 genotypes were determined on 436 Marshfield Clinic samples as described^6 and on the remaining 61 samples using Invader® chemistry in a laboratory test developed with analyte specific reagents manufactured by Third Wave Technologies (TWT, Madison, Wis.). The laboratory developed assay used analyte-specific reagents that detect CYP2C9*2, CYP2C9*3, and VKORC1 (position −1639).^26

[2] = Pooled regression models of stable warfarin dose versus CYP4F2 rs2108622 genotype, three Caucasian cohorts; assay type: in vivo, human
Description: Therefore, we conducted multiple regression analyses only on the *1 genotypes (n=1009), and used the observed mean dose (log scale) as the predicted value for those with only non-wild CYP2C9 alleles (*2/*2, *2/*3, and *3/*3, n=42). Accordingly, our models that include genetic variables are composites of multiple regression and simple mean-based estimation approaches.
To assess the relative contribution of clinical and genetic factors, three models were developed using different sets of potential predictor variables: clinical factors only (gender, age, body surface area, and target international normalized ratio), clinical factors plus CYP2C9 and VKORC1, and clinical factors CYP2C9, VKORC1, and rs2108622. A modified step-down approach^29 was used, starting with a “full” model which included all potential predictors pertinent to that model, effects to allow the three study sites to differ, two-factor interactions (including those by site), and quadratic terms for age, body surface area, and target international normalized ratio. […] The regression models were finalized after evaluating residuals and excluding cases with large residuals as outliers (|Studentized Residual|>3).
The explanatory power for the three final models was assessed graphically and by using the adjusted r-squared (R^2adj). The R^2adj statistic measures the proportion of the total variability explained by the model with adjustment for the number of parameters in the model. The statistic was directly calculated to use all cases under analysis by pooling across both parts of the composite models and by applying the final regression model to any outliers dropped when estimating the parameters in the regression models.

SMILES: CC(=O)CC(c1ccccc1)c1c(O)c2ccccc2oc1=O (stereo not shown) [warfarin]
- Geometric Mean warfarin dose ([1]; CYP2C9 *1/*1, VKORC1 CC, rs2108622 CC, N=13): 20.0 mg/week
- Geometric Mean warfarin dose ([1]; CYP2C9 *1/*1, VKORC1 CC, rs2108622 CT, N=18): 21.1 mg/week
- Geometric Mean warfarin dose ([1]; CYP2C9 *1/*1, VKORC1 CC, rs2108622 TT, N=2): 34.5 mg/week
- Geometric Mean warfarin dose ([1]; CYP2C9 *1/*1, VKORC1 CG, rs2108622 CC, N=68): 29.6 mg/week
- Geometric Mean warfarin dose ([1]; CYP2C9 *1/*1, VKORC1 CG, rs2108622 CT, N=46): 31.9 mg/week
- Geometric Mean warfarin dose ([1]; CYP2C9 *1/*1, VKORC1 CG, rs2108622 TT, N=12): 37.9 mg/week
- Geometric Mean warfarin dose ([1]; CYP2C9 *1/*1, VKORC1 GG, rs2108622 CC, N=64): 39.5 mg/week
- Geometric Mean warfarin dose ([1]; CYP2C9 *1/*1, VKORC1 GG, rs2108622 CT, N=41): 45.1 mg/week
- Geometric Mean warfarin dose ([1]; CYP2C9 *1/*1, VKORC1 GG, rs2108622 TT, N=8): 47.3 mg/week
- Geometric Mean warfarin dose ([1]; CYP2C9 *1/*2, VKORC1 CC, rs2108622 CC, N=3): 16.6 mg/week
- Geometric Mean warfarin dose ([1]; CYP2C9 *1/*2, VKORC1 CC, rs2108622 CT, N=5): 19.6 mg/week
- Geometric Mean warfarin dose ([1]; CYP2C9 *1/*2, VKORC1 CC, rs2108622 TT, N=1): 17.5 mg/week
- Geometric Mean warfarin dose ([1]; CYP2C9 *1/*2, VKORC1 CG, rs2108622 TT, N=5): 31.0 mg/week
- Geometric Mean warfarin dose ([1]; CYP2C9 *1/*2, VKORC1 GG, rs2108622 CC, N=13): 29.7 mg/week
- Geometric Mean warfarin dose ([1]; CYP2C9 *1/*2, VKORC1 GG, rs2108622 CT, N=17): 34.1 mg/week
- Geometric Mean warfarin dose ([1]; CYP2C9 *1/*3, VKORC1 CC, rs2108622 CT, N=2): 21.3 mg/week
- Geometric Mean warfarin dose ([1]; CYP2C9 *1/*3, VKORC1 CG, rs2108622 CC, N=13): 21.5 mg/week
- Geometric Mean warfarin dose ([1]; CYP2C9 *1/*3, VKORC1 GG, rs2108622 CC, N=5): 22.3 mg/week
- Geometric Mean warfarin dose ([1]; CYP2C9 *1/*3, VKORC1 GG, rs2108622 TT, N=3): 34.5 mg/week
- Geometric Mean warfarin dose ([1]; CYP2C9 *2/*2, VKORC1 CG, rs2108622 CC, N=1): 22.0 mg/week
- Geometric Mean warfarin dose ([1]; CYP2C9 *2/*2, VKORC1 CG, rs2108622 CT, N=1): 28.0 mg/week
- Geometric Mean warfarin dose ([1]; CYP2C9 *2/*2, VKORC1 CG, rs2108622 TT, N=1): 35.0 mg/week
- Geometric Mean warfarin dose ([1]; CYP2C9 *2/*2, VKORC1 GG, rs2108622 CC, N=1): 18.5 mg/week
- Geometric Mean warfarin dose ([1]; CYP2C9 *2/*2, VKORC1 GG, rs2108622 CT, N=1): 37.5 mg/week
- Geometric Mean warfarin dose ([1]; CYP2C9 *2/*2, VKORC1 GG, rs2108622 TT, N=1): 35.0 mg/week
- Geometric Mean warfarin dose ([1]; CYP2C9 *2/*3, VKORC1 CC, rs2108622 CC, N=1): 20.0 mg/week
- Geometric Mean warfarin dose ([1]; CYP2C9 *2/*3, VKORC1 CG, rs2108622 CT, N=1): 22.5 mg/week
- Geometric Mean warfarin dose ([1]; CYP2C9 *2/*3, VKORC1 CG, rs2108622 TT, N=1): 15.0 mg/week
- Geometric Mean warfarin dose ([1]; CYP2C9 *2/*3, VKORC1 GG, rs2108622 CC, N=3): 15.3 mg/week
- Geometric Mean warfarin dose ([1]; CYP2C9 *3/*3, VKORC1 CG, rs2108622 CC, N=1): 6.5 mg/week
- Geometric Mean warfarin dose ([1]; CYP2C9 *3/*3, VKORC1 CG, rs2108622 CT, N=1): 4.5 mg/week
- increase in warfarin dose with each T allele (CYP4F2 effect, final pooled model) ([2]; Marshfield): 12.8%
- absolute contribution of CYP4F2 to stable warfarin dose ([2]; Marshfield cohort): 26%
- increase in warfarin dose with each T allele (CYP4F2 effect, final pooled model) ([2]; University of Florida): 6.8%
- increase in warfarin dose with each T allele (CYP4F2 effect, final pooled model) ([2]; Washington University in St. Louis): 3.8%
- absolute contribution of CYP4F2 to stable warfarin dose ([2]; Washington University in St. Louis cohort): 8%
- difference in warfarin dose requirement, two TT alleles versus two CC alleles of CYP4F2 rs2108622 ([2]; pooled analyses, three Caucasian cohorts stabilized on warfarin): about 1 mg/day
